The target of test [1] is TRAF2 and NCK-interacting protein kinase (Homo sapiens, UniProt Q9UKE5).
Test [2] has as its target T1, Serine/threonine-protein kinase A-Raf (Homo sapiens, UniProt P10398).
T1 sequence (P10398 whole entry): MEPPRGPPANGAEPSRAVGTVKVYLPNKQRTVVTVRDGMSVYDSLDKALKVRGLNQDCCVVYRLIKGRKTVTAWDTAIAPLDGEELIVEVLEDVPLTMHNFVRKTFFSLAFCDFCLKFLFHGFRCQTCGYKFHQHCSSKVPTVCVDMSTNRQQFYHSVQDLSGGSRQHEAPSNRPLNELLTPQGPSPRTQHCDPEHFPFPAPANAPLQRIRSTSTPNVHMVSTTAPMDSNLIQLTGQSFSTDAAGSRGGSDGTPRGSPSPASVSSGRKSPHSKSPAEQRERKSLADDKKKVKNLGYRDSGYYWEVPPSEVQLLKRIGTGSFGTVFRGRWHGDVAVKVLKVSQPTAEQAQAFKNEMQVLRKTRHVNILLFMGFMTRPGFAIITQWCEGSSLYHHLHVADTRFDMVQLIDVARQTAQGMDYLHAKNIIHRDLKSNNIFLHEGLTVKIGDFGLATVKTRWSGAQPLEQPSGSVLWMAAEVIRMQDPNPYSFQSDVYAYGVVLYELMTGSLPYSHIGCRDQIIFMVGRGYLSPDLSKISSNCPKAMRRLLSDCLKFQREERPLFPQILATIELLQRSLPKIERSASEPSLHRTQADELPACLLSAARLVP

Test [3] concerns the target Ribosomal protein S6 kinase alpha-4 (Homo sapiens, UniProt O75676).
Test [4] concerns the target Putative heat shock protein HSP 90-beta 2 (Homo sapiens, UniProt Q58FF8).
Test [5] deals with GTP-binding nuclear protein Ran (Homo sapiens, UniProt P62826).
The target of test [6] is Tyrosine-protein kinase CSK (Homo sapiens, UniProt P41240).
The target in another test is Deoxycytidine kinase (Homo sapiens, UniProt P27707).
A further test has as its target T2, Activin receptor type-1B (Homo sapiens, UniProt P36896).
T2 sequence (P36896 whole entry): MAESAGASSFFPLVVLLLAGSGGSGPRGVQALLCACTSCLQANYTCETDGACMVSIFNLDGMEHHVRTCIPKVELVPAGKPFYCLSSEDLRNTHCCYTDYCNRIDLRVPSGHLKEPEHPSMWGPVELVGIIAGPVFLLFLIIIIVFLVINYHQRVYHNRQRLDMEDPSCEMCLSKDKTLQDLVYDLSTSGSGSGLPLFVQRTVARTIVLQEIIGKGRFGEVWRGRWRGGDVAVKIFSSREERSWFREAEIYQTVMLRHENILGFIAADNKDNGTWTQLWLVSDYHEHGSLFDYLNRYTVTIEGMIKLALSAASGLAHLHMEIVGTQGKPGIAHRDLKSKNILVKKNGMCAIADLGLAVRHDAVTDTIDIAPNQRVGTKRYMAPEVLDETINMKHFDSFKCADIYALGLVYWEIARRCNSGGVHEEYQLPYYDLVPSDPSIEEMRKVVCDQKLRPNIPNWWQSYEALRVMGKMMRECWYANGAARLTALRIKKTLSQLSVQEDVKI

Test [7] concerns the target T3, Serine/threonine-protein kinase TAO1 (Homo sapiens, UniProt Q7L7X3).
T3 sequence (Q7L7X3 whole entry): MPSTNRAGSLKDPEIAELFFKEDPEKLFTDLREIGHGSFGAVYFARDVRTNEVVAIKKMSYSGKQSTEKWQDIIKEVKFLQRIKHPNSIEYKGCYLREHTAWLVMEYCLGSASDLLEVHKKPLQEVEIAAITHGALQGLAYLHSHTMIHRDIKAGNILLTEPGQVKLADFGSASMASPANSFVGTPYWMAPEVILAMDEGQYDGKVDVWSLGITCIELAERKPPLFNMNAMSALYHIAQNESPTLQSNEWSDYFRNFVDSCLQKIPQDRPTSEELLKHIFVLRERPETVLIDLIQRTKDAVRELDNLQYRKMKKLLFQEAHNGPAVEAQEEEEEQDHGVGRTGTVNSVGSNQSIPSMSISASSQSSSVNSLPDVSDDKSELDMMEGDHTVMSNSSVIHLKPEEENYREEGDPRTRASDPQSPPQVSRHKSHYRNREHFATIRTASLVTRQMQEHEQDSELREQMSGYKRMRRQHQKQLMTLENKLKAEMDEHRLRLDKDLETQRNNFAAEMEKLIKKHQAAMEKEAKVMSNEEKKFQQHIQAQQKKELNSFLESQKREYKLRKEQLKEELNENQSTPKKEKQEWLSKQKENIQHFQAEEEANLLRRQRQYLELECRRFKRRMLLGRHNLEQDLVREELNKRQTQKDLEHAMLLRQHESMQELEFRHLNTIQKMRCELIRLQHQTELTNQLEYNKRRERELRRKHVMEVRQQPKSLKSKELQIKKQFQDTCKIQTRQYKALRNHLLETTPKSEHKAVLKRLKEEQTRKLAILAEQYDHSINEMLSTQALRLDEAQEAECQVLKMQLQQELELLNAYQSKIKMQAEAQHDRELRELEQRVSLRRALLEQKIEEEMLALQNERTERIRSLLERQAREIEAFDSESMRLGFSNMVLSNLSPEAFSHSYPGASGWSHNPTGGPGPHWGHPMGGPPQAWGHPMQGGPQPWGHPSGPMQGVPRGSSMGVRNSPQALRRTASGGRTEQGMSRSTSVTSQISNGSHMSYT

The target in test [8] is 5'-AMP-activated protein kinase catalytic subunit alpha-1 (Homo sapiens, UniProt Q13131).
For test [9], the target named is cAMP-dependent protein kinase catalytic subunit alpha (Homo sapiens, UniProt P17612).
Test [10] has as its target Mitogen-activated protein kinase kinase kinase 1 (Homo sapiens, UniProt Q13233).
In test [11] the target is Tyrosine-protein kinase Fyn (Homo sapiens, UniProt P06241).

Here are results for 13 molecules from ChEMBL document CHEMBL3991601, “The target landscape of clinical kinase drugs” (Science, 2017).

Calls of active or inactive are those of the source. For most assays here, no stated cut-off is given here; in the data, actives have a measured Kd and inactives only a lower limit. Where only a bound is given, the exact number is not on record here.

Chain of Tyrosine-protein kinase Fyn (P06241 whole entry): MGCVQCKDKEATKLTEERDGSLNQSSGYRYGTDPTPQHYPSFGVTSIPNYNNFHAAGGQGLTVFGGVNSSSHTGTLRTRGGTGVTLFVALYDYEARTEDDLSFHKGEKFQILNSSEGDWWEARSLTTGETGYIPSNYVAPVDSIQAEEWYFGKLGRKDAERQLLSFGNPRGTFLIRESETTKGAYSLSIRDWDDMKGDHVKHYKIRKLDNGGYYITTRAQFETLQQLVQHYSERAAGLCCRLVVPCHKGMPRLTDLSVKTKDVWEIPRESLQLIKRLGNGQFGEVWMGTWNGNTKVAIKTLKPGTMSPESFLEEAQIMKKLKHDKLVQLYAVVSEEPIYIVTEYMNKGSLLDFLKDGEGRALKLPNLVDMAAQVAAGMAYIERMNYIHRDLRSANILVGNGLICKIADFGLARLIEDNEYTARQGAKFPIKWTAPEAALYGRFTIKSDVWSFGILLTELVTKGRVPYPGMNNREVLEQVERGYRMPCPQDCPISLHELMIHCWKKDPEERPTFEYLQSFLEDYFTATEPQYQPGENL
Chain of Mitogen-activated protein kinase kinase kinase 1 (Q13233 whole entry): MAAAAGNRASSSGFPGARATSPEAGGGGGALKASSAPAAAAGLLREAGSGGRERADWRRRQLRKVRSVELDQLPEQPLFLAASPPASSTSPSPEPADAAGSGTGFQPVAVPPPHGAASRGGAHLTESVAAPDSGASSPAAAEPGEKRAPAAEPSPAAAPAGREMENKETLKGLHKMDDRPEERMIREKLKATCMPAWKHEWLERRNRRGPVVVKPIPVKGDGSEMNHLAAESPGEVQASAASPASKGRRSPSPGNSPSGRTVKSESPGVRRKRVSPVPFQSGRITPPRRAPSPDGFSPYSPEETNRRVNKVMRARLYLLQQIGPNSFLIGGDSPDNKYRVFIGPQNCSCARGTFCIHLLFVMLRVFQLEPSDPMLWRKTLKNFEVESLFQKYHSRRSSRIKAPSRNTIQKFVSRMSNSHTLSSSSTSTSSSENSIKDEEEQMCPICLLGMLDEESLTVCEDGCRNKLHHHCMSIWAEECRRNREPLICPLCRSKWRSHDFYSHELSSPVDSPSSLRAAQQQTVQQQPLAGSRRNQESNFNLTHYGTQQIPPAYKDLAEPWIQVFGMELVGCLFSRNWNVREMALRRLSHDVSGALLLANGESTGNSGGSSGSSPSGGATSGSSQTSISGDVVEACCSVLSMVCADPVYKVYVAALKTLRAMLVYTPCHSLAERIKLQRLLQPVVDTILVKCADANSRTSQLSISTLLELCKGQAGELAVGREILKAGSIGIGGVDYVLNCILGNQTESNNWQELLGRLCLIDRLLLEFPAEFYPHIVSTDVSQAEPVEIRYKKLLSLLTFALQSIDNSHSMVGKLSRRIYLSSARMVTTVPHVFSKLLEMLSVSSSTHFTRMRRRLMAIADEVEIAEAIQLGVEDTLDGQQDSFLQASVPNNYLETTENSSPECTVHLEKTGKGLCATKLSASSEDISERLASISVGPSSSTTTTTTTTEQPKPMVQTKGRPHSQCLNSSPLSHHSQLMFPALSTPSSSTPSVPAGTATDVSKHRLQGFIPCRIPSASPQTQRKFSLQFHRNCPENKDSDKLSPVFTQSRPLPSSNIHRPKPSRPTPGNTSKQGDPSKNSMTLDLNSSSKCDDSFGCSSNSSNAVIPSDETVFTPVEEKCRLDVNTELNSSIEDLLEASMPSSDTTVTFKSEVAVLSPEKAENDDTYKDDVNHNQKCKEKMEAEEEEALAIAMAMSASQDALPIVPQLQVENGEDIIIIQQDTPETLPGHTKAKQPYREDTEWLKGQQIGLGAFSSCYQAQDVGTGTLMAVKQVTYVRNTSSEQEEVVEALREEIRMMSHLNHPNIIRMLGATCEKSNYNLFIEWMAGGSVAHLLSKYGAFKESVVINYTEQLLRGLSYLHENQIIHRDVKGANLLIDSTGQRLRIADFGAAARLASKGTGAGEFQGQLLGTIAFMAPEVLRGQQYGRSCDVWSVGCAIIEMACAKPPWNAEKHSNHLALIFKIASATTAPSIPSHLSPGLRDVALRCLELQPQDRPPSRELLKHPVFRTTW
Chain of 5'-AMP-activated protein kinase catalytic subunit alpha-1 (Q13131 whole entry): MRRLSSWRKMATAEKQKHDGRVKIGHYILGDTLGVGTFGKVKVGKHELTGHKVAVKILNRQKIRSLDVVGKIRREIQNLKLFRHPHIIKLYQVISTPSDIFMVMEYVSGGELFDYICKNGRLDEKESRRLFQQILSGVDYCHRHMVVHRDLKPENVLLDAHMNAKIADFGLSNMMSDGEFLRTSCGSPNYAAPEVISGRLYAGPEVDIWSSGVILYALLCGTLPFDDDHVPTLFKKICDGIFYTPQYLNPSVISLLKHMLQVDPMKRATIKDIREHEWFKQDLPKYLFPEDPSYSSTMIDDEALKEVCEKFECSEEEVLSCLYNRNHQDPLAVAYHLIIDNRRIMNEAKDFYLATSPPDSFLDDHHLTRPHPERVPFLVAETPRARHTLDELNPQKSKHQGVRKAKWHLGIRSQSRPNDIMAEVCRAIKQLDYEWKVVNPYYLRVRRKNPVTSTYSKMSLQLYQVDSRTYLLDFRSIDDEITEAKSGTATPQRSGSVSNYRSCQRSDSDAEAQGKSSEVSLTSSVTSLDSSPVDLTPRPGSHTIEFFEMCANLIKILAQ
Chain of Putative heat shock protein HSP 90-beta 2 (Q58FF8 whole entry): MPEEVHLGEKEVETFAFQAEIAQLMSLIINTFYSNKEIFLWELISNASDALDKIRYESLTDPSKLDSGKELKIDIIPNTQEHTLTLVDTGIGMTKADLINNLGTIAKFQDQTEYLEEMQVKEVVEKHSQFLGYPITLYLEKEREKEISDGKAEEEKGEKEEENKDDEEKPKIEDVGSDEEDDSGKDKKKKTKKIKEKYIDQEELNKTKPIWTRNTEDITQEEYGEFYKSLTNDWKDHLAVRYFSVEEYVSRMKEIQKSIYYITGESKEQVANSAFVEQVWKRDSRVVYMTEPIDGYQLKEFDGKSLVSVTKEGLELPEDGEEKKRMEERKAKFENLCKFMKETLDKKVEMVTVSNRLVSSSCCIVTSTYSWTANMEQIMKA
Chain of TRAF2 and NCK-interacting protein kinase (Q9UKE5 whole entry): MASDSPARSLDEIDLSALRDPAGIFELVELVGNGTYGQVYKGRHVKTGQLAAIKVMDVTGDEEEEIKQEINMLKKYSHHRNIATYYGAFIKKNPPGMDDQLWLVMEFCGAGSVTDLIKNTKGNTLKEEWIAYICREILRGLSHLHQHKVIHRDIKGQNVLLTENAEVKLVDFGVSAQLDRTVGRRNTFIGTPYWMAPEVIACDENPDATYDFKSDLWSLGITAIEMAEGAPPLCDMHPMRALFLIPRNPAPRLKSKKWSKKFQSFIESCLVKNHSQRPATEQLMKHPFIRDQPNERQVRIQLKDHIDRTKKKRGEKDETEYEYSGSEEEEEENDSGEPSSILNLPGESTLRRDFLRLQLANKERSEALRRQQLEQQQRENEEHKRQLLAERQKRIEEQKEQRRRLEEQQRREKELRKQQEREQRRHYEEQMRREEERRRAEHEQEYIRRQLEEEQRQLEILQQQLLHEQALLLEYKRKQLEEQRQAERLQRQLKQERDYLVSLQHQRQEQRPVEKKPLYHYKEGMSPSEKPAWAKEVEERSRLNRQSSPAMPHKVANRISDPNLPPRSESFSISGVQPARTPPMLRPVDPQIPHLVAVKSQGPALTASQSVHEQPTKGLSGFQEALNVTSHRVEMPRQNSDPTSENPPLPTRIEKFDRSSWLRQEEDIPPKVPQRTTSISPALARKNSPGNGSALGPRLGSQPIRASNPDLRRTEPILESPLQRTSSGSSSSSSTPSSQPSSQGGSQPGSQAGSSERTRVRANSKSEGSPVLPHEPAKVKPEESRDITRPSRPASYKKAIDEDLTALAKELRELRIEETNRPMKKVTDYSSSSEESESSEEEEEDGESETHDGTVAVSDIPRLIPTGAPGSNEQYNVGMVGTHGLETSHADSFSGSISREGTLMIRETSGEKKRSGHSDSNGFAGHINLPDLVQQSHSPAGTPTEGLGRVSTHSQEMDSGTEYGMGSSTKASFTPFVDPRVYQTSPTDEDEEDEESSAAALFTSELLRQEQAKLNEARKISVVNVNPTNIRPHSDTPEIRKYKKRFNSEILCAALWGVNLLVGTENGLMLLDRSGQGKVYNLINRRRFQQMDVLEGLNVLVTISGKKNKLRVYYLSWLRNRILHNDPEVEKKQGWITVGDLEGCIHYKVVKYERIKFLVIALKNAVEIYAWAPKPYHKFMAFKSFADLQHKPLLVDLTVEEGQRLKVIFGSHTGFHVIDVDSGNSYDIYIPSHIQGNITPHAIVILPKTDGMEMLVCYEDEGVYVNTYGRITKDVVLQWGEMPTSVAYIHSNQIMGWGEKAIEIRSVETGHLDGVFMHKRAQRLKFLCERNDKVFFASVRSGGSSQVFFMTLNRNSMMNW
Chain of Tyrosine-protein kinase CSK (P41240 whole entry): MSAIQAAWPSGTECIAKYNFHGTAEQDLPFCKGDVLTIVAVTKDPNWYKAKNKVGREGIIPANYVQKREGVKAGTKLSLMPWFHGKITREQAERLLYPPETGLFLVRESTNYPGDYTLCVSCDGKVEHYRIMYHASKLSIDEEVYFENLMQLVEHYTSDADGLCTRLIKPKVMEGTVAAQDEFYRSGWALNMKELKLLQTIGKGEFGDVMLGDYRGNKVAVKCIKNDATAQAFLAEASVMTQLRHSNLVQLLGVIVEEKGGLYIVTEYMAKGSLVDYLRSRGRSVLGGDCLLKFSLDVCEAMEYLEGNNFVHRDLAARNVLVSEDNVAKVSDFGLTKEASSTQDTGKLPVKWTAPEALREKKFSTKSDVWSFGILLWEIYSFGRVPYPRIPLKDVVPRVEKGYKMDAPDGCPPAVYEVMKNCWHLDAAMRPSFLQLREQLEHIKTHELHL
Chain of Deoxycytidine kinase (P27707 whole entry): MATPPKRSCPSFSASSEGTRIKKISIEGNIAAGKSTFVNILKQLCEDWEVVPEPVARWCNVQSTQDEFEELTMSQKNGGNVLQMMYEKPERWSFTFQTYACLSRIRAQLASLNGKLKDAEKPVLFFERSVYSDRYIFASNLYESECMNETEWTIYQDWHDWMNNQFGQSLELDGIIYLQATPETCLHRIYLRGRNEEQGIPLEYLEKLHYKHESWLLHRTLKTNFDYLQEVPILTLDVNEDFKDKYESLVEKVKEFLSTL

For `O=C(Nc1cccc(Cl)c1)Nc1ncc(CCNc2ncnc3ccsc23)s1` [SNS-314], the Kd in [1], in test [2], in [3], in test [4], in test [5] and in [6] was > 30 µM (inactive) throughout. In addition, the Kd on Deoxycytidine kinase and on Activin receptor type-1B was > 30 µM (inactive) each time.
Consider `Cc1cn(-c2cc(NC(=O)c3ccc(C)c(Nc4nccc(-c5cccnc5)n4)c3)cc(C(F)(F)F)c2)cn1` [NILOTINIB], for which the Kd (in [2]; in [4]; in test [5]; at Deoxycytidine kinase) was > 30 µM (inactive) in each case.
As to `Cc1c(F)cc(C(=O)NC2CC2)cc1-c1ccc(C(=O)NCC(C)(C)C)cn1` [LOSMAPIMOD], the Kd in test [7], in test [2], in [3], in test [8], in test [9] and in test [4] was > 30 µM (inactive) throughout. Further, the Kd (in test [10]; in test [6]; on Deoxycytidine kinase; on Activin receptor type-1B; in [11]) was > 30 µM (inactive) in each case.
In the case of `Nc1nc(N)c2nc(-c3cccc(O)c3)c(-c3cccc(O)c3)nc2n1` [TG100-115], the Kd in test [2] is > 30 µM (inactive); in [4], > 30 µM (inactive); in test [5] it was > 30 µM (inactive); at Deoxycytidine kinase it was 0.012 µM (active).
Consider `CN1CCN(c2ccc3nc(-c4c(N)c5c(F)cccc5[nH]c4=O)[nH]c3c2)CC1` [DOVITINIB], for which the Kd (in test [2]; in [4]; in [5]; on Deoxycytidine kinase) was > 30 µM (inactive) each time.
Turning to `Cc1cc(Nc2cc(N3CCN(C)CC3)nc(/C=C/c3ccccc3)n2)n[nH]1` [ENMD-2076], the Kd in test [2], in [3], in test [8], in test [4], in test [5] and in test [10] was > 30 µM (inactive) throughout. Also, the Kd (in [6]; at Deoxycytidine kinase; at Activin receptor type-1B) was > 30 µM (inactive) throughout.
As for `Cc1nc(N)sc1-c1ccnc(Nc2ccc(N3CCOCC3)cc2)n1` [CYC-116], the Kd was 2.14 µM (active) in test [1]; > 30 µM (inactive) in test [2]; > 30 µM (inactive) in test [4]; > 30 µM (inactive) in test [5]; 8.16 µM (active) in test [10]; > 30 µM (inactive) in test [6]. In addition, the Kd is > 30 µM (inactive) on Deoxycytidine kinase and 1.27 µM (active) at Activin receptor type-1B.
For the molecule `C[C@@H](c1ccc2nccn2c1)n1nnc2ncc(-c3cnn(C)c3)nc21` [SAVOLITINIB], the Kd in test [1], in [7], in test [2], in test [3], in test [8] and in [9] was > 30 µM (inactive) each time. Moreover, the Kd (in test [4]; in test [5]; in test [10]; in test [6]; on Deoxycytidine kinase; in test [11]) was > 30 µM (inactive) in each case.
`CCn1c(-c2nonc2N)nc2c(C#CC(C)(C)O)ncc(OC[C@H]3CCCNC3)c21` [GSK-690693]: the Kd (in [2]; in test [4]; in test [5]; at Deoxycytidine kinase) was > 30 µM (inactive) throughout.
For `CCc1cnn2c(NCc3ccc[n+]([O-])c3)cc(N3CCCC[C@H]3CCO)nc12` [DINACICLIB], the Kd in test [1], in test [2], in test [3], in [4], in [5] and in test [10] was > 30 µM (inactive) each time. The Kd (in [6]; on Deoxycytidine kinase; at Activin receptor type-1B) was > 30 µM (inactive) throughout.
`COc1cc2nccc(Oc3ccc(NC(=O)Nc4cc(C)on4)c(Cl)c3)c2cc1OC` [TIVOZANIB]: the Kd in test [7], in test [3], in test [8], in test [9], in test [4] and in [5] was > 30 µM (inactive) throughout. Besides, the Kd (in test [10]; in test [6]; at Deoxycytidine kinase; at Activin receptor type-1B; in [11]) was > 30 µM (inactive) in each case.
With `OCCn1cc(-c2cnc3nnn(Cc4ccc5ncccc5c4)c3n2)cn1` [PF-04217903], the Kd in [1], in [2], in test [3], in [4], in [5] and in test [10] was > 30 µM (inactive) each time. In addition, the Kd (in test [6]; at Deoxycytidine kinase; at Activin receptor type-1B) was > 30 µM (inactive) throughout.
For the molecule `CCn1c(=O)c(-c2cc[nH]n2)cc2c(C)nc(N)nc21` [VOXTALISIB], the Kd in test [1], in test [2], in test [3], in test [8], in [9] and in test [4] was > 30 µM (inactive) each time. Besides, the Kd (in [5]; in test [10]; in test [6]; at Deoxycytidine kinase; at Activin receptor type-1B; in test [11]) was > 30 µM (inactive) each time.

A word on the Kd: it is a measure of binding affinity in units of concentration.
